Results on six compounds are retold here after patent US8501446B2 (Vertex Pharmaceuticals Incorporated, priority 2004, dated 2013).

Holding throughout (type): biochemical
Test [1] concerns the target T1, full length Aurora-A (AA 1-403) (Homo sapiens, UniProt O14965).
T1 construct: full length Aurora-A (AA 1-403)
T1 sequence (O14965 1-403): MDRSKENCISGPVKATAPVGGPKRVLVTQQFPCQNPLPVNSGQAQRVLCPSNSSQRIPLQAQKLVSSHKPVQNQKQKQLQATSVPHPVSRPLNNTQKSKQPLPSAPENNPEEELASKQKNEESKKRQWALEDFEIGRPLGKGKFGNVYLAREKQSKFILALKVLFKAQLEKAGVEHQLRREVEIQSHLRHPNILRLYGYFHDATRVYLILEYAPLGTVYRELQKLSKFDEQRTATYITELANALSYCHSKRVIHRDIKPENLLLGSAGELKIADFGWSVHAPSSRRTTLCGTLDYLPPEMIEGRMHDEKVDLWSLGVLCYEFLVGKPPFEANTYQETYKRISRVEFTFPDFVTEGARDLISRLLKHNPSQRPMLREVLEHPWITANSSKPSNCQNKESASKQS
The test can be described thus: Aurora-A inhibition assay, standard coupled enzyme system. Particulars: average Ki if more than one value determined.

The target of the next test is ROCK (Homo sapiens, UniProt Q13464). In words: ROCK inhibition assay, standard radioactive enzyme assay ("33P"). Summed up: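 Radiometric kinase assay, 5 nM ROCK with 27 μM MBP and 13 μM [γ-33P]ATP in 100 mM HEPES pH 7.5, 10 mM MgCl2, 25 mM NaCl, 2 mM DTT, 1.5% DMSO; 2 h at room temperature, compounds 10 μM to 2.6 nM. TCA quench, filter capture, scintillation counting; background-subtracted data fit to Ki(app).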

In the next test the target is JAK2 (Homo sapiens, UniProt O60674). In words: JAK2 inhibition assay (radioactive enzyme assay, as for JAK3). The note with it: average Ki if more than one value determined. Summed up: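 Both kinases: poly(Glu)4Tyr substrate in 100 mM HEPES pH 7.4, 10 mM MgCl2, 1 mM DTT. Run 20 min at 25° C, TCA stop, filter-bound ³³P counted, Ki(app) fitted after background subtraction. JAK3: final [γ-³³P]ATP 5 μM, enzyme added as 2 nM solution. JAK2: final poly(Glu)4Tyr 15 μM, final ATP 12 μM.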

The next test concerns the target Aurora-B (Homo sapiens, UniProt Q96GD4). The test can be described thus: Aurora-B inhibition assay, radioactive assay. Particulars: average Ki if more than one value determined. Summed up:
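Radiometric [γ-33P]ATP kinase assay run as described for JAK3/ROCK but with Aurora-B protein; 33P incorporation into substrate measured by filter capture and scintillation counting after TCA quench. Background-subtracted data fit to give Ki(app).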

The next test has as its target T2, Aurora-C (Homo sapiens, UniProt Q9UQB9).
T2 sequence (Q9UQB9 1-309): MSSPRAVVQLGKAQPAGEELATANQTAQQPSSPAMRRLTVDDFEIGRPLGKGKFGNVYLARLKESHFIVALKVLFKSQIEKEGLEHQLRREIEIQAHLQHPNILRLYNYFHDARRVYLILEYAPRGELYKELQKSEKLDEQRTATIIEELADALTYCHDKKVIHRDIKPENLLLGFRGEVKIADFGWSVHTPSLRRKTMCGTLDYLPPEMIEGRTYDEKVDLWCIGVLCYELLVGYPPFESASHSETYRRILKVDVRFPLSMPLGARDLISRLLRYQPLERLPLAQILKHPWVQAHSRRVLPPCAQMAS
In words: Aurora-C inhibition assay, coupled enzyme system as for Aurora-A. Particulars: average Ki if more than one value determined. Summed up: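 Coupled PK/LDH NADH-depletion assay with 35 nM enzyme, 200 μM ATP and 800 μM LRRASLG peptide in 100 mM HEPES pH 7.5, 10 mM MgCl2, 25 mM NaCl, 1 mM DTT, 3% DMSO at 30 °C. Compound (0.002-30 μM) was preincubated 10 min before ATP start; rates over 10 min gave Ki by nonlinear regression. Aurora-C run the same way.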

Sequence of JAK2 (O60674 whole entry, species assumed): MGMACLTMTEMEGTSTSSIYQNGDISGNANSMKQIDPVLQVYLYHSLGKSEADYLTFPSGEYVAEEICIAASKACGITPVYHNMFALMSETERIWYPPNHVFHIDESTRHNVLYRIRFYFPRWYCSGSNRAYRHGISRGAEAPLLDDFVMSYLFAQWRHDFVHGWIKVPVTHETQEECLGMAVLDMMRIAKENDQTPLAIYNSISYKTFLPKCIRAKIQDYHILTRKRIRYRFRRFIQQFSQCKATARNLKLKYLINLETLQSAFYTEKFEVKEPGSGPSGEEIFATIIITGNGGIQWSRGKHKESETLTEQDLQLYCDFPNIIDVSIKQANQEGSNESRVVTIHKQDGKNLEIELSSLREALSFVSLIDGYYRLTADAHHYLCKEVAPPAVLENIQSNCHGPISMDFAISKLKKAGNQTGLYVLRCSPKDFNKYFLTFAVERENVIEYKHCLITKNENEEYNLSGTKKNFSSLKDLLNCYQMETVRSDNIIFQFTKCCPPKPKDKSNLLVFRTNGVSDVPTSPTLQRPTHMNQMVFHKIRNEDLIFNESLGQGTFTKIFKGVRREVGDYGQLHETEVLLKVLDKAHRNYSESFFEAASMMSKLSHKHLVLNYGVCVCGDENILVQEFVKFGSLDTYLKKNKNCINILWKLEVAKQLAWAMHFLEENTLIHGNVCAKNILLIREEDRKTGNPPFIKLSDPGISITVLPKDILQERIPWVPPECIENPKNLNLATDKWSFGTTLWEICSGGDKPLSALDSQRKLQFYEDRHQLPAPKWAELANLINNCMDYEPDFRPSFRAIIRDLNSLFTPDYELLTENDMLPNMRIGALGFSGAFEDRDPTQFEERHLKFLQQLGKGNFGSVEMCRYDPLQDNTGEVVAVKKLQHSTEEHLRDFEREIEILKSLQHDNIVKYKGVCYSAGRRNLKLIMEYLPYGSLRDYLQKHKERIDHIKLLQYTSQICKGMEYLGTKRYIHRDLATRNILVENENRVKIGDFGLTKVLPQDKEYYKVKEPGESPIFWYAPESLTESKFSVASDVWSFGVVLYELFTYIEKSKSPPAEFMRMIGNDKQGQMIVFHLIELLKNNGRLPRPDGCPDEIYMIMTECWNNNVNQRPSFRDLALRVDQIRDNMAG
Sequence of ROCK (Q13464 whole entry): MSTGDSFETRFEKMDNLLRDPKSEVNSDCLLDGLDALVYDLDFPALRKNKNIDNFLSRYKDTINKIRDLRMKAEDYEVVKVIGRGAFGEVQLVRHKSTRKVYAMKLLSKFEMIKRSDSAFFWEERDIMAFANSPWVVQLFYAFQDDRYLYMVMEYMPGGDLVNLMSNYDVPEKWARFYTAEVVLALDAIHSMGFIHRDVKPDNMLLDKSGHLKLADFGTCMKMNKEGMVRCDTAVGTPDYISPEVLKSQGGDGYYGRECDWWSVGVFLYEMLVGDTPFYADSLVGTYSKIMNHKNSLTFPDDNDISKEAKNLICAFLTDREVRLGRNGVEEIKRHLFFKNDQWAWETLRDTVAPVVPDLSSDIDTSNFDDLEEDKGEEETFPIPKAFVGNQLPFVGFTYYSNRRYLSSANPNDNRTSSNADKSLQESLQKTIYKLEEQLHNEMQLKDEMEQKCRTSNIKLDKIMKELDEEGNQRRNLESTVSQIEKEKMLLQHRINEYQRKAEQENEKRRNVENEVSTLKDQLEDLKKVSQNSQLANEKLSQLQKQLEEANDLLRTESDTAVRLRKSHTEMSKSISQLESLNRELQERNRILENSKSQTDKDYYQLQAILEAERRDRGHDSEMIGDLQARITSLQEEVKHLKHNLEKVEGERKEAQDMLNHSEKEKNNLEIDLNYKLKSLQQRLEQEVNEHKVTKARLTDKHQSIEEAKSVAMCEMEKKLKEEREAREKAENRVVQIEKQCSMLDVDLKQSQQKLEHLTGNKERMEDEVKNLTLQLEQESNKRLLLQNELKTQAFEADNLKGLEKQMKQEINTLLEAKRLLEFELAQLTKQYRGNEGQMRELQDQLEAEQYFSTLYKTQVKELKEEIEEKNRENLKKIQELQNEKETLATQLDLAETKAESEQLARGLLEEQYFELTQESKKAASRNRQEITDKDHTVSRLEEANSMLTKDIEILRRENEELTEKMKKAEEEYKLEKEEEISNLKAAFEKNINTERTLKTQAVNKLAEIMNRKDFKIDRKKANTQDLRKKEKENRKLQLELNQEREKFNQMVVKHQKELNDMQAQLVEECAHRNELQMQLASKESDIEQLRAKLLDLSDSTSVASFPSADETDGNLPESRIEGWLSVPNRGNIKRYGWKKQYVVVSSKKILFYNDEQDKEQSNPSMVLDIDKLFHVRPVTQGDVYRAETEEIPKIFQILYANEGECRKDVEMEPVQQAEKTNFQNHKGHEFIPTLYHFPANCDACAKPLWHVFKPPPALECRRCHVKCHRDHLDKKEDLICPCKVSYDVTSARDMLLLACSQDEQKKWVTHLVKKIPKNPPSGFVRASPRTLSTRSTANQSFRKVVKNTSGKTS
Sequence of Aurora-B (Q96GD4 whole entry): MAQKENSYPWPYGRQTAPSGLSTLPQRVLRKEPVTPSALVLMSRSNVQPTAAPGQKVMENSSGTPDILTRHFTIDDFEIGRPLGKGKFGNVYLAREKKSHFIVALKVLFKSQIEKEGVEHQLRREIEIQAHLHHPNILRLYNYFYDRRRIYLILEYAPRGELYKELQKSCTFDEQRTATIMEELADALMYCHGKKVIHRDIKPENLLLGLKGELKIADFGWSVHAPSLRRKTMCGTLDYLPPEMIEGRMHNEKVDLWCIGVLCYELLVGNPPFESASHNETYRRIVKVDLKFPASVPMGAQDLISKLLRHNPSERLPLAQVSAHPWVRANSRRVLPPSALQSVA

Broadly, the Ki is a measure of affinity in units of concentration, obtained from inhibition or displacement. Take `COC(=O)c1cnc2[nH]cc(-c3cccc(N4C[C@@H](C)N(C(C)=O)[C@@H](C)C4)n3)c2c1` [Compound 35]: the Ki (in test [1]; at ROCK; on JAK2) was below 0.5 µM each time.
Take `C[C@H](Nc1cccc(-c2c[nH]c3ncc(Cl)cc23)n1)c1ccc(F)cc1` [Compound 395]: the Ki (on Aurora-B; in test [1]; on JAK2) was below 0.5 µM throughout.
Take `COc1cnc2[nH]cc(-c3cccc(N4C[C@@H](C)N(C(C)=O)[C@@H](C)C4)n3)c2c1` [Compound 18]: the figures for the Ki (in test [1]; at ROCK; at JAK2) were 0.5 to 5 µM, 0.5 to 5 µM and below 0.5 µM, respectively.
For `C[C@H](Nc1nc(-c2c[nH]c3ncc(Cl)cc23)ncc1F)C(=O)NCC(F)(F)F` [Compound 369], the inhibition constant Ki (at Aurora-B; in test [1]; on Aurora-C) was below 0.5 µM in each case.
On to `CCOC(=O)N1CCCN(c2nccc(-c3c[nH]c4ncc(OC)cc34)n2)CC1` [Compound 33], for which the Ki (in test [1]; on ROCK; at JAK2) was below 0.5 µM each time.
In the case of `CC(=O)N1[C@H](C)CN(c2cccc(-c3c[nH]c4ncc(Cl)cc34)n2)C[C@@H]1C` [Compound 19], the Ki (in test [1]; at ROCK; on JAK2) was below 0.5 µM in each case.
